These results are taken from ChEMBL document CHEMBL1129173, “New class of potent ligands for the human peripheral cannabinoid receptor” (Bioorg Med Chem Lett, 1996).

SMILES strings stand for the structures. A value given as a limit tells only on which side of the number the result lay.

Experiment [1] concerns the target Cannabinoid receptor 1 (Homo sapiens, UniProt P21554). Description: Evaluated for binding affinity against recombinant human central cannabinoid receptor 1.
The target of experiment [2] is Cannabinoid receptor 2 (Homo sapiens, UniProt P34972). Description: Evaluated for binding affinity against recombinant human peripheral cannabinoid receptor 2.
Cannabinoid receptor 2, sequence (P34972 whole entry): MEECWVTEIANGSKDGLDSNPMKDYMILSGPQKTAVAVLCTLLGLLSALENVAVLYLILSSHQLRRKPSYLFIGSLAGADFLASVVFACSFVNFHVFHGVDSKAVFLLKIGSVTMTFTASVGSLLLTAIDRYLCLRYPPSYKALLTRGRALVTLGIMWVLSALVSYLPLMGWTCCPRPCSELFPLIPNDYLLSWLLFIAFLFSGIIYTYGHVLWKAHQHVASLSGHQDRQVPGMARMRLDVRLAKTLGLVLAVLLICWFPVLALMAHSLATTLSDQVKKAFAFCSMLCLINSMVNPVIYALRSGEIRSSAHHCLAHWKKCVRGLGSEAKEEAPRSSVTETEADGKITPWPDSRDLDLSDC

Cannabinoid receptor 1, sequence (P21554 whole entry): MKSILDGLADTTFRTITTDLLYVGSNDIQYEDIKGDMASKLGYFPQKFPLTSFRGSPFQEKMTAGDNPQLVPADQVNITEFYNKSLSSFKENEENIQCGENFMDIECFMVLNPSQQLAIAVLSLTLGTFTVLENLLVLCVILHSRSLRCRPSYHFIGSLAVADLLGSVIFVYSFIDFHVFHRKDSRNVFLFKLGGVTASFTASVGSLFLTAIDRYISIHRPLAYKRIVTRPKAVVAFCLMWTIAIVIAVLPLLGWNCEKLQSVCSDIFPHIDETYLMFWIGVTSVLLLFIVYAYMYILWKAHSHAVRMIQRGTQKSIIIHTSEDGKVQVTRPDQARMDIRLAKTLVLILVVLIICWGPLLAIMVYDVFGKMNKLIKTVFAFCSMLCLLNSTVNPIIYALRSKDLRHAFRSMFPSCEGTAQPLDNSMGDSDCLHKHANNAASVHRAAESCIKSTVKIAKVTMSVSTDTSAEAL

For `Cc1c(C(=O)c2cccc3ccccc23)c2ccccc2n1CCN1CCOCC1`, the Ki in experiment [1] amounted to 638 nM; in experiment [2], 14 nM.
The like results for `COC(=O)Cc1c(C)n(C(=O)c2ccccc2Cl)c2ccc(OC)cc12` were, in that order, 1720 nM and 397 nM.
The matching figures for `Cc1c(CCN2CCOCC2)c2ccccc2n1C(=O)c1cccc2ccccc12`: 2180 nM and 216 nM.
The like results for `COc1ccc2c(c1)c(CC(=O)N1CCOCC1)c(C)n2C(=O)c1ccc(F)cc1Cl` were, in that order, 5570 nM and 134 nM.
Take `COc1ccc2c(c1)c(CN1CCOCC1)c(C)n2C(=O)c1cccc(Cl)c1Cl`: the values for the Ki in experiment [1] and in experiment [2] were 3360 nM and 22 nM, respectively.
The like results for `COc1ccc2c(c1)c(CC(=O)N1CCOCC1)c(C)n2Cc1cccc(Cl)c1Cl` were, in that order, greater than 20000 nM and 1050 nM.
Turning to `Cc1c(CN2CCOCC2)c2ccccc2n1-c1cccc2ccccc12`, the Ki in experiment [1] stood at 6680 nM; in experiment [2] it was 7840 nM.
The matching figures for `COc1ccc2c(c1)c(CC(=O)N1CCOCC1)c(C)n2C(=O)c1c(Cl)cccc1Cl`: 2550 nM and 59 nM.
The like results for `COC(=O)Cc1c(C)n(C(=O)c2cccc3ccccc23)c2ccc(OC)cc12` were, in that order, 4610 nM and 142 nM.
The like results for `COc1ccc2c(c1)c(CC(=O)N1CCOCC1)c(C)n2C(=O)c1cccc(Cl)c1Cl` were, in that order, 2040 nM and 14 nM.
Regarding `COc1ccc2c(c1)c(CCN1CCOCC1)c(C)n2C(=O)c1ccc(Cl)cc1`, the Ki in experiment [1] is 10300 nM; in experiment [2], 213 nM.
Take `Cc1c(CN2CCOCC2)c2ccccc2n1C(=O)c1cccc2ccccc12`: the Ki in experiment [1] worked out at 877 nM; in experiment [2] it was 8.5 nM.
The like results for `COC(=O)Cc1c(C)n(C(=O)c2ccc(Cl)cc2)c2ccc(OC)cc12` were, in that order, greater than 20000 nM and 4020 nM.
The matching figures for `COc1ccc2c(c1)c(CCN1CCOCC1)c(C)n2C(=O)c1cccc(Cl)c1Cl`: 1920 nM and 12 nM.
The matching figures for `Cc1c(CCN2CCOCC2)c2ccccc2n1C(=O)c1cccc(Cl)c1Cl`: 3190 nM and 27 nM.
Consider `COc1ccc2c(c1)c(CC(=O)N1CCOCC1)c(C)n2C(=O)c1cccc(Cl)c1`, for which the Ki in experiment [1] is 16800 nM; in experiment [2], 354 nM.
For `COc1ccc2c(c1)c(CC(=O)N1CCOCC1)c(C)n2C(=O)c1ccccc1Cl`, the Ki in experiment [1] came out at 3600 nM; in experiment [2], 69 nM.
The matching figures for `COc1ccc2c(c1)c(CC(=O)N1CCOCC1)c(C)n2C(=O)c1ccc(Cl)cc1` [INDOMETHACIN MORPHOLINYLAMIDE]: greater than 20000 nM and 435 nM.
`COc1ccc2c(c1)c(CC(=O)O)c(C)n2C(=O)c1ccc(Cl)cc1` [INDOMETHACIN]: the Ki in experiment [2] was greater than 20000 nM.
